Data on six compounds can be found in patent publication US10676479B2, “Imidazolepyridine compounds and uses thereof” (Novartis AG, priority 2016, dated 2020).

As usually defined, the IC50 is the concentration that inhibits the measured activity by half.

One test concerns the target EED (1-441)-His protein (Homo sapiens (Human), UniProt O75530). Kind of test: EED-H3K27Me3 peptide competition binding assay by AlphaScreen. The conditions noted are these: EED Alphascreen binding Qualified assay. (In general: In Alpha technology, singlet oxygen from a donor bead excites a nearby acceptor bead.)
The target in test [1] is wild type PRC2 (wtPRC2) complex (Homo sapiens (Human), UniProt O75530). The test can be described thus: EED LC-MS assay. The format is biochemical. The conditions noted are these: EED LC-MS Qualified assay; read-out: (b) IC50. The method, then: EED LC-MS Assay Representative compounds of the present invention were serially and separately diluted 3-fold in DMSO to obtain a total of eight or twelve concentrations. […] A 6 μL solution of 3 μM of the peptide substrate H3K27Me0 (histone H3[21-44]-biotin) in reaction buffer was added to initiate each reaction. […] The data were then fit to a dose response equation using the program Helios to get the IC50 values of the test compound.

Test [2] relates to H3K27 methylation in G401 cell. Kind of test: ELISA (H3K27 methylation) assay. The format is cell-based. The conditions noted are these: Homo sapiens, G-401, ELISA Qualified assay, 48 h, read-out: (c) IC50. The gist of the method: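 G401 cells given 3-fold serial dilutions (eight or twelve points, top 20 μM) for 48 h. Lysate ELISA for H3K27 methylation normalized to H3 signal, % inhibition versus DMSO, IC50 from dose-response fit.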

wild type PRC2 (wtPRC2) complex, sequence (O75530 whole entry): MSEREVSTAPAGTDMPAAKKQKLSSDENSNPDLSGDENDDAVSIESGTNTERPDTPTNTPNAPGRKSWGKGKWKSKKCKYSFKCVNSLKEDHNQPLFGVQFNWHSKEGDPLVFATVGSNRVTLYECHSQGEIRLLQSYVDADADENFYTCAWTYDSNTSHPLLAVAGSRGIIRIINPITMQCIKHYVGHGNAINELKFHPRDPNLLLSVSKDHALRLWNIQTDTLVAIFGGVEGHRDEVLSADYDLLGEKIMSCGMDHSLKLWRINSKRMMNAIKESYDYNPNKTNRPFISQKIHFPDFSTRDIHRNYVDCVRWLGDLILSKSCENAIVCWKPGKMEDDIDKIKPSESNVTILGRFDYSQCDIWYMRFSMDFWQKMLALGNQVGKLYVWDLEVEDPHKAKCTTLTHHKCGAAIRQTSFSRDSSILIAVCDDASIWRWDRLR
wild type PRC2 (wtPRC2) complex, sequence (Q15910 whole entry partner): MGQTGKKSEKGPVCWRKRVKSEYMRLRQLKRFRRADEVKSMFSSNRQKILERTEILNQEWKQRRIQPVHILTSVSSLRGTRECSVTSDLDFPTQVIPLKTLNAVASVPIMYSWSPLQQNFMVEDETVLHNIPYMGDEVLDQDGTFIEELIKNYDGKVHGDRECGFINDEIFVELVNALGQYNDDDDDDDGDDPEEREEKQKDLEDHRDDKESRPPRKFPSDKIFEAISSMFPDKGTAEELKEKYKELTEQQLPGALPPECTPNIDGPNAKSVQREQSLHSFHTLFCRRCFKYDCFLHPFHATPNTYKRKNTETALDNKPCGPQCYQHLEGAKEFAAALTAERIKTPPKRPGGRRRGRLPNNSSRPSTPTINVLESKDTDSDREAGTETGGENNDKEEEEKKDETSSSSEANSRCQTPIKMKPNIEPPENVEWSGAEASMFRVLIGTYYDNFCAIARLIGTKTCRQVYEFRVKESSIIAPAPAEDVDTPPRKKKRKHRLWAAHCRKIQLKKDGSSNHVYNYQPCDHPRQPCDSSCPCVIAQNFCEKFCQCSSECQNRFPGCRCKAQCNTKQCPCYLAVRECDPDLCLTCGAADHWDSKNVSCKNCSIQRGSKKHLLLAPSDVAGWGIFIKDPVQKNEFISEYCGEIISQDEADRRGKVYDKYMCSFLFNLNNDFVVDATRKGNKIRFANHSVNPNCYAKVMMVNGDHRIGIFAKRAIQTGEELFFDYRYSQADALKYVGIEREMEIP
wild type PRC2 (wtPRC2) complex, sequence (Q15022 whole entry partner): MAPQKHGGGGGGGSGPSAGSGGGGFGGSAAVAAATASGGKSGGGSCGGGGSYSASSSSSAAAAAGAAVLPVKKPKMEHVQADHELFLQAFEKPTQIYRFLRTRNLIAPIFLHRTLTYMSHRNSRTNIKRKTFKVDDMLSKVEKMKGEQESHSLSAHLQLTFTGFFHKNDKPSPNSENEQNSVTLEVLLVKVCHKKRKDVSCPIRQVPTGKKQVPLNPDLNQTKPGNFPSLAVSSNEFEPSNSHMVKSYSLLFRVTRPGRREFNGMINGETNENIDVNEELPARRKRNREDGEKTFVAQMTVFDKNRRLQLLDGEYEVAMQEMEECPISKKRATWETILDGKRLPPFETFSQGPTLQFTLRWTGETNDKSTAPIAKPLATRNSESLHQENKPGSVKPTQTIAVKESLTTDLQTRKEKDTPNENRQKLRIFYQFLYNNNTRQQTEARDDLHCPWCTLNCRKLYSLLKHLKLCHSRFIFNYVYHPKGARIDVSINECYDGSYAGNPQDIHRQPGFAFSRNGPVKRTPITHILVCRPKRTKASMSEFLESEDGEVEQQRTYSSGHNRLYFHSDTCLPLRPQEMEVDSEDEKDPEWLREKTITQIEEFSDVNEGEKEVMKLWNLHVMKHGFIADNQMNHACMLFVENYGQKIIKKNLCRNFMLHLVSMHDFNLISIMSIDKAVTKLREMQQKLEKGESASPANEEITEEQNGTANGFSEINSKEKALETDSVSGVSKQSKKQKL
EED (1-441)-His protein, sequence (O75530 whole entry): as the sequence (O75530 whole entry) above

On to `N#Cc1ncn2c(NCc3c(F)ccc4c3CCO4)ncc(-c3ccc(N4CCNCC4)nc3)c12` [Example 86, 5-(((5-fluoro-2,3-dihydrobenzofuran-4-yl)methyl)amino)-8-(6-(piperazin-1-yl)pyridin-3-yl)imidazo[1,5-c]pyrimidine-1-carbonitrile], for which the IC50 at EED (1-441)-His protein is 0.0045 µM; in test [1], 0.0176 µM; in test [2] it was 0.0025 µM.
On to `Cc1ccc(-c2cnc(NCc3c(F)ccc4c3CCO4)n3cnc(C#N)c23)cn1` [Example 72, 5-(((5-fluoro-2,3-dihydrobenzofuran-4-yl)methyl)amino)-8-(6-methylpyridin-3-yl)imidazo[1,5-c]pyrimidine-1-carbonitrile], for which the IC50 turned out to be 0.0108 µM on EED (1-441)-His protein, 0.0203 µM in test [1] and 0.022 µM in test [2].
For the compound `N#Cc1ncn2c(NCc3c(F)ccc4c3CCO4)ncc(-n3ccnc3)c12` [Example 119, 5-(((5-fluoro-2,3-dihydrobenzofuran-4-yl)methyl)amino)-8-(1H-imidazol-1-yl)imidazo[1,5-c]pyrimidine-1-carbonitrile], the IC50 on EED (1-441)-His protein was 0.0181 µM; in test [1], 0.0447 µM; in test [2], 0.0188 µM.
Consider `Cc1ccc(-c2ncn3c(NCc4c(F)ccc5c4CCO5)ncc(-c4cnc(C)nc4C)c23)cn1` [Example 114, 8-(2,4-dimethylpyrimidin-5-yl)-N-((5-fluoro-2,3-dihydrobenzofuran-4-yl)methyl)-1-(6-methylpyridin-3-yl)imidazo[1,5-c]pyrimidin-5-amine], for which the IC50 is 0.0084 µM on EED (1-441)-His protein, 0.0319 µM in test [1] and 0.0228 µM in test [2].
For `Cc1c(-c2cnc(NCc3c(F)ccc4c3CCO4)n3cncc23)ccnc1CF` [Example 58, N-((5-fluoro-2,3-dihydrobenzofuran-4-yl)methyl)-8-(2-(fluoromethyl)-3-methylpyridin-4-yl)imidazo[1,5-c]pyrimidin-5-amine], in that order: 0.0149 µM, 0.0252 µM and 0.0361 µM.
For `Cc1cc(C(=O)N(C)C)ncc1-c1cnc(NCc2c(F)ccc3c2CCO3)n2cncc12` [Example 54, 5-(5-(((5-fluoro-2,3-dihydrobenzofuran-4-yl)methyl)amino)imidazo[1,5-c]pyrimidin-8-yl)-N,N,4-trimethylpicolinamide], in that order: 0.0044 µM, 0.0126 µM and 0.0081 µM.
